Results on 41 compounds are retold here after patent US9120770B2, “Substituted pyridine and pyrazine compounds as PDE4 inhibitors” (DART NEUROSCIENCE (CAYMAN) LTD., priority 2013, dated 2015).

For orientation: EC50 means the concentration that produces a half-maximal response. A high value points to lower potency in that assay.

In the experiment the target is PDE4D3 (Homo sapiens, UniProt Q08499).
Chain of PDE4D3 (Q08499 1-673 isoform Q08499-2): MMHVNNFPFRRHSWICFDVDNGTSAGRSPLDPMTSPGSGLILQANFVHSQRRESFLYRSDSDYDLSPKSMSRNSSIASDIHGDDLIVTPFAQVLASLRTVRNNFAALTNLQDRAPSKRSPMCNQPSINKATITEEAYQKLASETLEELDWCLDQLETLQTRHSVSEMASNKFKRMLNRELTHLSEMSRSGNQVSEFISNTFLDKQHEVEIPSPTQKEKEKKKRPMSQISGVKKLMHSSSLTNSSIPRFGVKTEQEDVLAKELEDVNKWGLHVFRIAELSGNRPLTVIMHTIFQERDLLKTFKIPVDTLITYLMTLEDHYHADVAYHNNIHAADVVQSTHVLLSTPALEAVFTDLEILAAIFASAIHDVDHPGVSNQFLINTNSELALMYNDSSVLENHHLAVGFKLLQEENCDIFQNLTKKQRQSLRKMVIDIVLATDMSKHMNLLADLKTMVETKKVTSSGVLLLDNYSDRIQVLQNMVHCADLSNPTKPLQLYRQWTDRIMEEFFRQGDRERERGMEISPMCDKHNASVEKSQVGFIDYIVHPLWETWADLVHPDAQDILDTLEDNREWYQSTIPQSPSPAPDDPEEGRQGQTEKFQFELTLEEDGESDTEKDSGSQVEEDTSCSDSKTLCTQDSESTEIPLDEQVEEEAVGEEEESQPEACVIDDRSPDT
`COc1ncc(Cc2ccc(CN)cc2)cc1-c1cccc(Cl)c1` [Example 59, (4-{[5-(3-Chlorophenyl)-6-methoxypyridin-3-yl]methyl}phenyl)methanamine]: the EC50 lay in the range of 0.1 to 1 µM.
For `CCOc1ncc(Cn2cnc(N)n2)cc1-c1cccc(OC(F)F)c1` [Example 226, 1-({5-[3-(Difluoromethoxy)phenyl]-6-ethoxypyridin-3-yl}methyl)-1H-1,2,4-triazol-3-amine], the EC50 was < 0.1 µM.
As for `CCOc1ncc(Cn2cnc(COC)n2)nc1-c1cccc(OC(F)F)c1` [Example 189, 3-[3-(Difluoromethoxy)phenyl]-2-ethoxy-5-{[3-(methoxymethyl)-1H-1,2,4-triazol-1-yl]methyl}pyrazine], the EC50 was 0.1 to 1 µM.
With `COc1ncc(Cc2ccc(C(F)(F)F)nc2)cc1-c1cccc(Cl)c1` [Example 49, 3-(3-Chlorophenyl)-2-methoxy-{[6-(trifluoromethyl)pyridin-3-yl]methyl}pyridine], the EC50 fell in the range of 0.1 to 1 µM.
For `COc1ncc(Cc2ccnc(N)c2)cc1-c1cccc(Cl)c1` [Example 60, 4-{[5-(3-Chlorophenyl)-6-methoxypyridin-3-yl]methyl}pyridin-2-amine], the EC50 lay within 0.1 to 1 µM.
In the case of `COc1ncc(Cn2cc([N+](=O)[O-])cn2)cc1-c1cccc(Cl)c1` [Example 180, 3-(3-Chlorophenyl)-2-methoxy-5-[(4-nitro-1H-pyrazol-1-yl)methyl]pyridine], the EC50 fell in the range of 0.1 to 1 µM.
Consider `COc1ncc(Cc2cnc(C#N)nc2)nc1-c1cccc(OC(F)F)c1` [Example 107, 5-({6-[3-(Difluoromethoxy)phenyl]-5-methoxypyrazin-2-yl}methyl)pyrimidine-2-carbonitrile], for which the EC50 was < 0.1 µM.
In the case of `CC(C)Oc1cccc(-c2cc(Cc3cnc(N)nc3)cnc2OC(F)F)c1` [Example 42, 5-{[6-(Difluoromethoxy)-5-[3-(propan-2-yloxy)phenyl]pyridin-3-yl]methyl}pyrimidin-2-amine], the EC50 was in the range of 1 to 10 µM.
The compound `COc1ncc(Cn2cncn2)cc1-c1cccc(OC(F)(F)F)c1` [Example 137, 2-Methoxy-5-(1H-1,2,4-triazol-1-ylmethyl)-3-[3-(trifluoromethoxy)phenyl]pyridine] registered an EC50 of 0.1 to 1 µM.
The compound `COc1ncn(Cc2cnc(OC)c(-c3cccc(Cl)c3)c2)n1` [Example 213, 3-(3-Chlorophenyl)-2-methoxy-5-[(3-methoxy-1H-1,2,4-triazol-1-yl)methyl]pyridine] registered an EC50 of 0.1 to 1 µM.
The compound `COc1ncc(Cc2ccnc(C(N)=O)c2)cc1-c1cccc(Cl)c1` [Example 63, 4-{[5-(3-Chlorophenyl)-6-methoxypyridin-3-yl]methyl}pyridine-2-carboxamide] returned an EC50 of 1 to 10 µM.
On to `COc1ncc(Cn2cnc(CO)n2)nc1-c1cccc(Cl)c1` [Example 199, (1-{[6-(3-Chlorophenyl)-5-methoxypyrazin-2-yl]methyl}-1H-1,2,4-triazol-3-yl)methanol], for which the EC50 was 1 to 10 µM.
Take `COc1cc(-c2cc(Cc3cnc(N)nc3)cnc2OC(F)F)ccn1` [Example 46, 5-{[6-(Difluoromethoxy)-5-(2-methoxypyridin-4-yl)pyridin-3-yl]methyl}pyrimidin-2-amine]: the EC50 was < 0.1 µM.
Compound `FC(F)Oc1ncc(Cn2cncn2)cc1-c1cccc(OC(F)(F)F)c1` [Example 176, 2-(Difluoromethoxy)-5-(1H-1,2,4-triazol-1-ylmethyl)-3-[3-(trifluoromethoxy)phenyl]pyridine] registered an EC50 of 0.1 to 1 µM.
The value for `FC(F)Oc1ncc(Cc2ccccn2)cc1-c1cccc(Cl)c1` [Example 109, 3-(3-Chlorophenyl)-2-(difluoromethoxy)-5-(pyridin-2-ylmethyl)pyridine] was 0.1 to 1 µM.
On to `FC(F)Oc1ncc(Cn2cnc(C(F)F)n2)cc1-c1cccc(Cl)c1` [Example 259, 3-(3-Chlorophenyl)-2-(difluoromethoxy)-5-{[3-(difluoromethyl)-1H-1,2,4-triazol-1-yl]methyl}pyridine], for which the EC50 lay in the range of 0.1 to 1 µM.
`COc1ncc(Cn2ncnc2C(C)(C)O)cc1-c1cccc(Cl)c1` [Example 249, 2-(1-{[5-(3-Chlorophenyl)-6-methoxypyridin-3-yl]methyl}-1H-1,2,4-triazol-5-yl)propan-2-ol]: the EC50 was > 10 µM.
On to `COc1ncc(Cn2cnc(CO)n2)cc1-c1cccc(OC(F)F)c1` [Example 202, [1-({5-[3-(Difluoromethoxy)phenyl]-6-methoxypyridin-3-yl}methyl)-1H-1,2,4-triazol-3-yl]methanol], for which the EC50 is < 0.1 µM.
The compound `Cc1cn(Cc2cnc(OC(F)F)c(-c3cccc(Cl)c3)c2)cn1` [Example 154, 3-(3-Chlorophenyl)-2-(difluoromethoxy)-5-[(4-methyl-1H-imidazol-1-yl)methyl]pyridine] returned an EC50 of 0.1 to 1 µM.
`COc1ncc(Cn2cnc(N)n2)cc1-c1cccc(C)c1` [Example 222, 1-{[6-Methoxy-5-(3-methylphenyl)pyridin-3-yl]methyl}-1H-1,2,4-triazol-3-amine] registered an EC50 of 0.1 to 1 µM.
With `COc1ncc(Cc2cnc(N)nc2)cc1-c1cccc(Cl)c1` [Example 25, 5-{[5-(3-Chlorophenyl)-6-methoxypyridin-3-yl]methyl}pyrimidin-2-amine], the EC50 is < 0.1 µM.
The value for `CCOc1ncc(Cc2cnc(C#N)nc2)nc1-c1cccc(OC(F)F)c1` [Example 1, 5-({6-[3-(Difluoromethoxy)phenyl]-5-ethoxypyrazin-2-yl}methyl)pyrimidine-2-carbonitrile] was < 0.1 µM; that for `COc1ncc(Cc2cnc(C#N)nc2)nc1-c1cccc(Cl)c1` [Example 22, 5-{[6-(3-Chlorophenyl)-5-methoxypyrazin-2-yl]methyl}pyrimidine-2-carbonitrile] was > 10 µM.
For the compound `COc1ncc(Cc2cnn(C)c2)cc1-c1cccc(Cl)c1` [Example 79, 3-(3-Chlorophenyl)-2-methoxy-5-[(1-methyl-1H-pyrazol-4-yl)methyl]pyridine], the EC50 is < 0.1 µM.
On to `COc1ncc(Cn2cc([N+](=O)[O-])cn2)nc1-c1cccc(Cl)c1` [Example 181, 3-(3-Chlorophenyl)-2-methoxy-5-[(4-nitro-1H-pyrazol-1-yl)methyl]pyrazine], for which the EC50 is 1 to 10 µM.
On to `COC(=O)Cc1ccc(Cc2cnc(OC(F)F)c(-c3cccc(Cl)c3)c2)cc1` [Example 100, Methyl 2-(4-{[5-(3-chlorophenyl)-6-(difluoromethoxy)pyridin-3-yl]methyl}phenyl)acetate], for which the EC50 was < 0.1 µM.
`NCc1ncn(Cc2cnc(OC(F)F)c(-c3cccc(Cl)c3)c2)n1` [Example 240, (1-{[5-(3-Chlorophenyl)-6-(difluoromethoxy)pyridin-3-yl]methyl}-1H-1,2,4-triazol-3-yl)methanamine] showed an EC50 of 1 to 10 µM.
In the case of `COc1ncc(Cn2cnc(C)n2)cc1-c1cccc(Cl)c1` [Example 143, 3-(3-Chlorophenyl)-2-methoxy-5-[(3-methyl-1H-1,2,4-triazol-1-yl)methyl]pyridine], the EC50 was < 0.1 µM.
`COc1ncc(Cn2cc(NC(C)=O)cn2)cc1-c1cccc(Cl)c1` [Example 172, N-(1-{[5-(3-Chlorophenyl)-6-methoxypyridin-3-yl]methyl}-1H-pyrazol-4-yl)acetamide]: the EC50 was in the range of 1 to 10 µM.
`COc1ncc(Cc2cnc(NCC(F)(F)F)nc2)cc1-c1cccc(Cl)c1` [Example 84, 5-{[5-(3-Chlorophenyl)-6-methoxypyridin-3-yl]methyl}-N-(2,2,2-trifluoroethyl)pyrimidin-2-amine]: the EC50 was < 0.1 µM.
The value for `COc1ncc(Cn2cncn2)cc1-c1cccc(C#N)c1` [Example 136, 3-[2-Methoxy-5-(1H-1,2,4-triazol-1-ylmethyl)pyridin-3-yl]benzonitrile] was 0.1 to 1 µM; that for `COc1ncc(Cn2cncn2)cc1-c1cc(Cl)cs1` [Example 142, 3-(4-Chlorothiophen-2-yl)-2-methoxy-5-(1H-1,2,4-triazol-1-ylmethyl)pyridine] was 0.1 to 1 µM; that for `COc1ncc(Cc2ccnc(C#N)c2)cc1-c1cccc(Cl)c1` [Example 62, 4-{[5-(3-Chlorophenyl)-6-methoxypyridin-3-yl]methyl}pyridine-2-carbonitrile] was 1 to 10 µM.
Consider `CCOc1ncc(Cc2cnc(N)nc2)cc1-c1cccc(Cl)c1` [Example 40, 5-{[5-(3-Chlorophenyl)-6-ethoxypyridin-3-yl]methyl}pyrimidin-2-amine], for which the concentration giving a half-maximal response (EC50) is < 0.1 µM.
For `COc1ncc(Cc2cnc(NCCN(C)C)nc2)cc1-c1cccc(Cl)c1` [Example 3, {2-[(5-{[5-(3-Chlorophenyl)-6-methoxypyridin-3-yl]methyl}pyrimidin-2-yl)amino]ethyl}dimethylamine], the EC50 lay within 1 to 10 µM.
The value for `FC(F)Oc1ncc(Cc2cnc(NC3CC3)nc2)cc1-c1cccc(Cl)c1` [Example 91, 5-{[5-(3-Chlorophenyl)-6-(difluoromethoxy)pyridin-3-yl]methyl}-N-cyclopropylpyrimidin-2-amine] was 0.1 to 1 µM; that for `COc1ncc(Cn2ccc(N)n2)cc1-c1cccc(OC(F)F)c1` [Example 232, 1-({5-[3-(Difluoromethoxy)phenyl]-6-methoxypyridin-3-yl}methyl)-1H-pyrazol-3-amine] was < 0.1 µM.
The value for `COc1ncc(Cc2ccc(=O)n(C)c2)cc1-c1cccc(Cl)c1` [Example 52, 5-{[5-(3-Chlorophenyl)-6-methoxypyridin-3-yl]methyl}-1-methyl-1,2-dihydropyridin-2-one] was 1 to 10 µM; that for `OCc1cn(Cc2cnc(OC(F)F)c(-c3cccc(Cl)c3)c2)cn1` [Example 274, (1-{[5-(3-Chlorophenyl)-6-(difluoromethoxy)pyridin-3-yl]methyl}-1H-imidazol-4-yl)methanol] was < 0.1 µM.
`COc1ncc(Cn2cc(C#N)cn2)cc1-c1cccc(Cl)c1` [Example 170, 1-{[5-(3-Chlorophenyl)-6-methoxypyridin-3-yl]methyl}-1H-pyrazole-4-carbonitrile] displayed an EC50 of 0.1 to 1 µM.
On to `NC(=O)c1cn(Cc2cnc(OC(F)F)c(-c3cccc(Cl)c3)c2)cn1` [Example 198, 1-{[5-(3-Chlorophenyl)-6-(difluoromethoxy)pyridin-3-yl]methyl}-1H-imidazole-4-carboxamide], for which the EC50 is 1 to 10 µM.
